Data: patent US9145351B2, “Azole derivatives, methods for producing the same, intermediate thereof, agro-horticultural agents” (KUREHA CORPORATION, priority 2009, dated 2015)
Read-outs that look alike come from different tables or passages of the source.

How the values were obtained:
Type in all cases: cell-based
Fusarium graminearum = assay: microbe, parasite or virus in culture; conditions: for inhibition at 5 µg/mL / inhibition at 50 µg/mL: Fusarium graminearum
Botritis cinerea = assay: Plate medium fungicidal assay, gray mold B.c (Experimental Example 5)
How it was run: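 Compounds in DMSO were incorporated into PDA plate medium at 50 mg/L and 5 mg/L, then inoculated with 4 mm mycelial plugs of Botrytis cinerea. Colony diameter versus untreated plates gave % mycelial growth inhibition, R=100(dc−dt)/dc, scored on a 5-grade scale.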

[1] = tested on: Pseudocercoporella herpotrichoides; assay: Plate medium fungicidal assay, wheat eye spot P.h (Experimental Example 5)
How it was run: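 Compound in DMSO mixed into PDA agar for plates at 50 mg/L and 5 mg/L, inoculated with a 4 mm mycelial plug of Pseudocercosporella herpotrichoides. Colony diameter compared with untreated plates: % mycelial growth inhibition = 100(dc−dt)/dc, scored on a 5-grade scale.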

Giberella fujikuroi = assay: Plate medium fungicidal assay, rice bakanae disease G.f (Experimental Example 5)
How it was run: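 Gibberella fujikuroi mycelial plugs (4 mm) placed on PDA plates containing compound at 50 mg/L and 5 mg/L, added from DMSO solution. Colony diameter compared with untreated plates as % inhibition = 100(dc−dt)/dc, then scored in 5 grades.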

Rhynchosporium secalis = assay: Plate medium fungicidal assay, barley leaf blotch R.sec (Experimental Example 5); conditions: for inhibition at 5 µg/mL / inhibition at 50 µg/mL: Rhynchosporium secalis
How it was run: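 Compound in DMSO mixed into PDA plate medium at 50 mg/L and 5 mg/L; 4 mm mycelial plug of the fungus inoculated. Colony diameter compared with untreated plates gives % mycelial growth inhibition R=100(dc−dt)/dc, scored on a 5-grade scale.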

Pyricularia oryzae = assay: microbe, parasite or virus in culture; conditions: for inhibition at 5 µg/mL / inhibition at 50 µg/mL: Pyricularia oryzae
Sclerotinia sclerotiorum = assay: Plate medium fungicidal assay, Sclerotinia rot S.s (Experimental Example 5); conditions: for inhibition at 5 µg/mL / inhibition at 50 µg/mL: Sclerotinia sclerotiorum
How it was run: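 A 4 mm mycelial plug was placed on PDA plates containing compound at 50 mg/L and 5 mg/L, added from DMSO solution. Colony diameters were compared with untreated plates, % mycelial growth inhibition was R=100(dc−dt)/dc, and scores fell into 5 grades.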

[2] = plate medium containing compound at 5 mg/L
[3] = plate medium containing compound at 50 mg/L
[4] = read-out: growth inhibition grade F.g
[5] = plate medium, 5 mg/L, read-out: growth inhibition grade B.c
[6] = plate medium, 50 mg/L, read-out: growth inhibition grade B.c
[7] = plate medium, 5 mg/L, read-out: growth inhibition grade P.h
[8] = plate medium, 50 mg/L, read-out: growth inhibition grade P.h
[9] = plate medium, 5 mg/L, read-out: growth inhibition grade G.f
[10] = plate medium, 50 mg/L, read-out: growth inhibition grade G.f
[11] = plate medium, 5 mg/L, read-out: growth inhibition grade R.sec
[12] = plate medium, 50 mg/L, read-out: growth inhibition grade R.sec
[13] = read-out: growth inhibition grade P.o
[14] = plate medium, 5 mg/L, read-out: growth inhibition grade S.s
[15] = plate medium, 50 mg/L, read-out: growth inhibition grade S.s
[16] = read-out: Growth inhibition grade, F.g
[17] = plate medium containing compound at 5 mg/L, read-out: Growth inhibition grade, B.c
[18] = plate medium containing compound at 50 mg/L, read-out: Growth inhibition grade, B.c
[19] = plate medium containing compound at 5 mg/L, read-out: Growth inhibition grade, P.h
[20] = plate medium containing compound at 50 mg/L, read-out: Growth inhibition grade, P.h
[21] = plate medium containing compound at 5 mg/L, read-out: Growth inhibition grade, G.f
[22] = plate medium containing compound at 50 mg/L, read-out: Growth inhibition grade, G.f
[23] = plate medium containing compound at 5 mg/L, read-out: Growth inhibition grade, R.sec
[24] = plate medium containing compound at 50 mg/L, read-out: Growth inhibition grade, R.sec
[25] = read-out: Growth inhibition grade, P.o
[26] = plate medium containing compound at 5 mg/L, read-out: Growth inhibition grade, S.s
[27] = plate medium containing compound at 50 mg/L, read-out: Growth inhibition grade, S.s

Row | SMILES | Growth inhibition grade, F.g (Fusarium graminearum; [2]) | Growth inhibition grade, F.g (Fusarium graminearum; [3]) | Growth inhibition grade, B.c (Botritis cinerea; [2]) | Growth inhibition grade, B.c (Botritis cinerea; [3]) | Growth inhibition grade, P.h [1, 2] | Growth inhibition grade, P.h [1, 3] | Growth inhibition grade, G.f (Giberella fujikuroi; [2]) | Growth inhibition grade, G.f (Giberella fujikuroi; [3]) | Growth inhibition grade, R.sec (Rhynchosporium secalis; [2]) | Growth inhibition grade, R.sec (Rhynchosporium secalis; [3]) | Growth inhibition grade, P.o (Pyricularia oryzae; [2]) | Growth inhibition grade, P.o (Pyricularia oryzae; [3]) | Growth inhibition grade, S.s (Sclerotinia sclerotiorum; [2]) | Growth inhibition grade, S.s (Sclerotinia sclerotiorum; [3]) | further results
1 | C[C@]1(CCl)CC[C@@H](Cc2ccc(F)cc2F)[C@]1(O)Cn1cncn1 (relative stereo) [Compound I-88] | 5 (% Mycerial growth inhibition of 80% or higher) | 5 (% Mycerial growth inhibition of 80% or higher) | 5 (% Mycerial growth inhibition of 80% or higher) | 5 (% Mycerial growth inhibition of 80% or higher) | 5 (% Mycerial growth inhibition of 80% or higher) | 5 (% Mycerial growth inhibition of 80% or higher) | 5 (% Mycerial growth inhibition of 80% or higher) | 5 (% Mycerial growth inhibition of 80% or higher) | 5 (% Mycerial growth inhibition of 80% or higher) | 5 (% Mycerial growth inhibition of 80% or higher) | 5 (% Mycerial growth inhibition of 80% or higher) | 5 (% Mycerial growth inhibition of 80% or higher) | 5 (% Mycerial growth inhibition of 80% or higher) | 5 (% Mycerial growth inhibition of 80% or higher) | 
2 | C[C@@]1(CCl)CC[C@@H](Cc2ccc(Cl)cc2)[C@]1(O)Cn1cncn1 (racemic) [Compound I-101] | 5 (% Mycerial growth inhibition of 80% or higher) | 5 (% Mycerial growth inhibition of 80% or higher) | 5 (% Mycerial growth inhibition of 80% or higher) | 5 (% Mycerial growth inhibition of 80% or higher) | 5 (% Mycerial growth inhibition of 80% or higher) | 5 (% Mycerial growth inhibition of 80% or higher) | 5 (% Mycerial growth inhibition of 80% or higher) | 5 (% Mycerial growth inhibition of 80% or higher) | 5 (% Mycerial growth inhibition of 80% or higher) | 5 (% Mycerial growth inhibition of 80% or higher) | 5 (% Mycerial growth inhibition of 80% or higher) | 5 (% Mycerial growth inhibition of 80% or higher) | 5 (% Mycerial growth inhibition of 80% or higher) | 5 (% Mycerial growth inhibition of 80% or higher) | 
3 | O[C@]1(Cn2cncn2)[C@@H](Cc2ccc(Cl)cc2)CC[C@@H]1C(F)(F)F (racemic) [Compound I-365, (1RS,2SR,5RS)-5-(4-chlorobenzyl)-2-trifluoromethyl-1-(1H-1,2,4-triazol-1-ylmethyl)cyclopentanol] |  |  |  |  |  |  |  |  |  |  |  |  |  |  | inhibition at 5 µg/mL (Fusarium graminearum; [4]): 20 to 40%; inhibition at 50 µg/mL (Fusarium graminearum; [4]): > 80%; inhibition at 5 µg/mL (Botritis cinerea; [5]): < 20%; inhibition at 50 µg/mL (Botritis cinerea; [6]): > 80%; inhibition at 5 µg/mL [1, 7]: 20 to 40%; inhibition at 50 µg/mL [1, 8]: > 80%; inhibition at 5 µg/mL (Giberella fujikuroi; [9]): < 20%; inhibition at 50 µg/mL (Giberella fujikuroi; [10]): > 80%; inhibition at 5 µg/mL (Rhynchosporium secalis; [11]): 20 to 40%; inhibition at 50 µg/mL (Rhynchosporium secalis; [12]): > 80%; inhibition at 5 µg/mL (Pyricularia oryzae; [13]): < 20%; inhibition at 50 µg/mL (Pyricularia oryzae; [13]): > 80%; inhibition at 5 µg/mL (Sclerotinia sclerotiorum; [14]): 20 to 40%; inhibition at 50 µg/mL (Sclerotinia sclerotiorum; [15]): > 80%
4 | CC[C@]1(CCl)CC[C@@H](Cc2ccc(Cl)cc2)[C@]1(O)Cn1cncn1 (racemic) [Compound I-36, (1RS,2SR,5SR)-5-(4-chlorobenzyl)-2-chloromethyl-2-ethyl-1-(1H-1,2,4-triazol-1-ylmethyl)cyclopentanol] |  |  |  |  |  |  |  |  |  |  |  |  |  |  | inhibition at 5 µg/mL (Fusarium graminearum; [16]): > 80%; inhibition at 50 µg/mL (Fusarium graminearum; [16]): > 80%; inhibition at 5 µg/mL (Botritis cinerea; [17]): 60 to 80%; inhibition at 50 µg/mL (Botritis cinerea; [18]): > 80%; inhibition at 5 µg/mL [1, 19]: > 80%; inhibition at 50 µg/mL [1, 20]: > 80%; inhibition at 5 µg/mL (Giberella fujikuroi; [21]): > 80%; inhibition at 50 µg/mL (Giberella fujikuroi; [22]): > 80%; inhibition at 5 µg/mL (Rhynchosporium secalis; [23]): > 80%; inhibition at 50 µg/mL (Rhynchosporium secalis; [24]): > 80%; inhibition at 5 µg/mL (Pyricularia oryzae; [25]): > 80%; inhibition at 50 µg/mL (Pyricularia oryzae; [25]): > 80%; inhibition at 5 µg/mL (Sclerotinia sclerotiorum; [26]): > 80%; inhibition at 50 µg/mL (Sclerotinia sclerotiorum; [27]): > 80%
5 | C[C@]1(CCl)CC[C@@H](Cc2ccc(-c3ccccc3)cc2)[C@]1(O)Cn1cncn1 (relative stereo) [Compound I-82] | 5 (% Mycerial growth inhibition of 80% or higher) | 5 (% Mycerial growth inhibition of 80% or higher) | 5 (% Mycerial growth inhibition of 80% or higher) | 5 (% Mycerial growth inhibition of 80% or higher) | 5 (% Mycerial growth inhibition of 80% or higher) | 5 (% Mycerial growth inhibition of 80% or higher) | 5 (% Mycerial growth inhibition of 80% or higher) | 5 (% Mycerial growth inhibition of 80% or higher) | 5 (% Mycerial growth inhibition of 80% or higher) | 5 (% Mycerial growth inhibition of 80% or higher) | 5 (% Mycerial growth inhibition of 80% or higher) | 5 (% Mycerial growth inhibition of 80% or higher) | 5 (% Mycerial growth inhibition of 80% or higher) | 5 (% Mycerial growth inhibition of 80% or higher) | 
6 | CC(Cl)=C[C@@]1(C)CC[C@@H](Cc2ccc(Cl)cc2)[C@]1(O)Cn1cncn1 (racemic) [Compound I-15, (1RS,2RS,5SR)-5-(4-chlorobenzyl)-2-(2-chloropropenyl)-2-methyl-1-(1H-1,2,4-triazol-1-ylmethyl)cyclopentanol] |  |  |  |  |  |  |  |  |  |  |  |  |  |  | inhibition at 5 µg/mL (Fusarium graminearum; [16]): > 80%; inhibition at 50 µg/mL (Fusarium graminearum; [16]): > 80%; inhibition at 5 µg/mL (Botritis cinerea; [17]): > 80%; inhibition at 50 µg/mL (Botritis cinerea; [18]): > 80%; inhibition at 5 µg/mL [1, 19]: > 80%; inhibition at 50 µg/mL [1, 20]: > 80%; inhibition at 5 µg/mL (Giberella fujikuroi; [21]): > 80%; inhibition at 50 µg/mL (Giberella fujikuroi; [22]): > 80%; inhibition at 5 µg/mL (Rhynchosporium secalis; [23]): > 80%; inhibition at 50 µg/mL (Rhynchosporium secalis; [24]): > 80%; inhibition at 5 µg/mL (Pyricularia oryzae; [25]): > 80%; inhibition at 50 µg/mL (Pyricularia oryzae; [25]): > 80%; inhibition at 5 µg/mL (Sclerotinia sclerotiorum; [26]): > 80%; inhibition at 50 µg/mL (Sclerotinia sclerotiorum; [27]): > 80%
7 | C[C@]1(CCl)CC[C@@H](Cc2ccc(OC(F)(F)F)cc2)[C@]1(O)Cn1cncn1 (relative stereo) [Compound I-79] | 5 (% Mycerial growth inhibition of 80% or higher) | 5 (% Mycerial growth inhibition of 80% or higher) | 5 (% Mycerial growth inhibition of 80% or higher) | 5 (% Mycerial growth inhibition of 80% or higher) | 5 (% Mycerial growth inhibition of 80% or higher) | 5 (% Mycerial growth inhibition of 80% or higher) | 5 (% Mycerial growth inhibition of 80% or higher) | 5 (% Mycerial growth inhibition of 80% or higher) | 5 (% Mycerial growth inhibition of 80% or higher) | 5 (% Mycerial growth inhibition of 80% or higher) | 5 (% Mycerial growth inhibition of 80% or higher) | 5 (% Mycerial growth inhibition of 80% or higher) | 5 (% Mycerial growth inhibition of 80% or higher) | 5 (% Mycerial growth inhibition of 80% or higher) | 
8 | C[C@@]1(CCCl)CC[C@@H](Cc2ccc(Cl)cc2)[C@]1(O)Cn1cncn1 (racemic) [Compound I-104, (1RS,2SR,5SR)-5-(4-chlorobenzyl)-2-(2-chloroethyl)-2-methyl-1-(1H-1,2,4-triazol-1-ylmethyl)cyclopentanol] |  |  |  |  |  |  |  |  |  |  |  |  |  |  | inhibition at 5 µg/mL (Fusarium graminearum; [4]): > 80%; inhibition at 50 µg/mL (Fusarium graminearum; [4]): > 80%; inhibition at 5 µg/mL (Botritis cinerea; [5]): > 80%; inhibition at 50 µg/mL (Botritis cinerea; [6]): > 80%; inhibition at 5 µg/mL [1, 7]: > 80%; inhibition at 50 µg/mL [1, 8]: > 80%; inhibition at 5 µg/mL (Giberella fujikuroi; [9]): > 80%; inhibition at 50 µg/mL (Giberella fujikuroi; [10]): > 80%; inhibition at 5 µg/mL (Rhynchosporium secalis; [11]): > 80%; inhibition at 50 µg/mL (Rhynchosporium secalis; [12]): > 80%; inhibition at 5 µg/mL (Pyricularia oryzae; [13]): > 80%; inhibition at 50 µg/mL (Pyricularia oryzae; [13]): > 80%; inhibition at 5 µg/mL (Sclerotinia sclerotiorum; [14]): > 80%; inhibition at 50 µg/mL (Sclerotinia sclerotiorum; [15]): > 80%
